Reference: ChEMBL document CHEMBL5715952 (Oncotarget, 2015)
Active and inactive are the calls of the source. The rule behind the calls is not given here.

Tests used:
RPMI-8226 [1] = assay: Synergistic antiproliferative activity against wild-type human RPMI-8226 cells assessed as reduction in cell viability at ED50 incubated for 72 hrs in presence of bortezomib by MTS assay; format: functional
[2] = Synergistic antiproliferative activity against human melphalan-resistant RPMI-8226 cells assessed as reduction in cell viability at ED50 incubated for 72 hrs in presence of bortezomib by MTS assay; format: functional, Melphalan-resistant RPMI-8226 cell
ANBL-6 [3] = assay: Synergistic antiproliferative activity against wild-type human ANBL-6 cells assessed as reduction in cell viability at ED50 incubated for 72 hrs in presence of bortezomib by MTS assay; format: functional
[4] = Synergistic antiproliferative activity against human ANBL-6 BR resistant cells assessed as reduction in cell viability at ED50 incubated for 72 hrs in presence of bortezomib by MTS assay; format: functional
RPMI-8226 [5] = assay: Synergistic antiproliferative activity against wild-type human RPMI-8226 cells assessed as reduction in cell viability at ED75 incubated for 72 hrs in presence of bortezomib by MTS assay; format: functional
[6] = Synergistic antiproliferative activity against human melphalan-resistant RPMI-8226 cells assessed as reduction in cell viability at ED75 incubated for 72 hrs in presence of bortezomib by MTS assay; format: functional, Melphalan-resistant RPMI-8226 cell
RPMI-8226 [7] = assay: Synergistic antiproliferative activity against wild-type human RPMI-8226 cells assessed as reduction in cell viability at ED90 incubated for 72 hrs in presence of bortezomib by MTS assay; format: functional
[8] = Synergistic antiproliferative activity against human melphalan-resistant RPMI-8226 cells assessed as reduction in cell viability at ED90 incubated for 72 hrs in presence of bortezomib by MTS assay; format: functional, Melphalan-resistant RPMI-8226 cell
ANBL-6 [9] = assay: Synergistic antiproliferative activity against wild-type human ANBL-6 cells assessed as reduction in cell viability at ED90 incubated for 72 hrs in presence of bortezomib by MTS assay; format: functional
ANBL-6 [10] = assay: Synergistic apoptosis activity in wild-type human ANBL-6 cells assessed as viable at 1600 nM incubated for 72 hrs in the presence of BTZ by annexin V and 7-AAD staining by flow cytometry analysis (Rvb=59 %); format: functional
ANBL-6 [11] = assay: Induction of apoptosis in wild-type human ANBL-6 cells assessed as late apoptosis at 1600 nM incubated for 72 hrs by annexin V and 7-AAD staining by flow cytometry analysis (Rvb=26 %); format: functional
ANBL-6 [12] = assay: Synergistic apoptosis activity in wild-type human ANBL-6 cells assessed as late apoptosis at 1600 nM incubated for 72 hrs in the presence of BTZ by annexin V and 7-AAD staining by flow cytometry analysis (Rvb=26 %); format: functional
ANBL-6 [13] = assay: Induction of apoptosis in wild-type human ANBL-6 cells assessed as early apoptosis at 40 nM incubated for 72 hrs by annexin V and 7-AAD staining by flow cytometry analysis (Rvb=14 %); format: functional
[14] = test system: Bortezomib-resistant ANBL6; assay: Induction of apoptosis in human bortezomib-resistant ANBL6 cells assessed as viable at 160 nM incubated for 72 hrs by annexin V and 7-AAD staining by flow cytometry analysis (Rvb=80 %); format: functional
[15] = test system: Bortezomib-resistant ANBL6; assay: Induction of apoptosis in human bortezomib-resistant ANBL6 cells assessed as viable at 1600 nM incubated for 72 hrs by annexin V and 7-AAD staining by flow cytometry analysis (Rvb=80 %); format: functional
[16] = test system: Bortezomib-resistant ANBL6; assay: Synergistic apoptosis activity in human bortezomib-resistant ANBL6 cells assessed as viable at 1600 nM incubated for 72 hrs in the presence of BTZ by annexin V and 7-AAD staining by flow cytometry analysis (Rvb=80 %); format: functional
[17] = test system: Bortezomib-resistant ANBL6; assay: Induction of apoptosis in human bortezomib-resistant ANBL6 cells assessed as late apoptosis at 160 nM incubated for 72 hrs by annexin V and 7-AAD staining by flow cytometry analysis (Rvb=5 %); format: functional
[18] = test system: Bortezomib-resistant ANBL6; assay: Induction of apoptosis in human bortezomib-resistant ANBL6 cells assessed as late apoptosis at 1600 nM incubated for 72 hrs by annexin V and 7-AAD staining by flow cytometry analysis (Rvb=5 %); format: functional
[19] = test system: Bortezomib-resistant ANBL6; assay: Synergistic apoptosis activity in human bortezomib-resistant ANBL6 cells assessed as late apoptosis at 1600 nM incubated for 72 hrs in the presence of BTZ by annexin V and 7-AAD staining by flow cytometry analysis (Rvb=5 %); format: functional
[20] = test system: Bortezomib-resistant ANBL6; assay: Induction of apoptosis in human bortezomib-resistant ANBL6 cells assessed as early apoptosis at 160 nM incubated for 72 hrs by annexin V and 7-AAD staining by flow cytometry analysis (Rvb=15 %); format: functional
[21] = test system: Bortezomib-resistant ANBL6; assay: Induction of apoptosis in human bortezomib-resistant ANBL6 cells assessed as early apoptosis at 1600 nM incubated for 72 hrs by annexin V and 7-AAD staining by flow cytometry analysis (Rvb=15 %); format: functional
[22] = test system: Bortezomib-resistant ANBL6; assay: Synergistic apoptosis activity in human bortezomib-resistant ANBL6 cells assessed as early apoptosis at 1600 nM incubated for 72 hrs in the presence of BTZ by annexin V and 7-AAD staining by flow cytometry analysis (Rvb=15 %); format: functional
ANBL-6 [23] = assay: Synergistic apoptosis activity in wild-type human ANBL-6 cells assessed as early apoptosis at 1600 nM incubated for 24 hrs in the presence of BTZ by annexin V and 7-AAD staining by flow cytometry analysis; format: functional
ANBL-6 [24] = assay: Synergistic apoptosis activity in wild-type human ANBL-6 cells assessed as early apoptosis at 1600 nM incubated for 72 hrs in the presence of BTZ by annexin V and 7-AAD staining by flow cytometry analysis; format: functional
[25] = test system: Bortezomib-resistant ANBL6; assay: Synergistic apoptosis activity in human bortezomib-resistant ANBL6 cells assessed as early apoptosis at 1600 nM incubated for 24 hrs in the presence of BTZ by annexin V and 7-AAD staining by flow cytometry analysis; format: functional
[26] = test system: Bortezomib-resistant ANBL6; assay: Synergistic apoptosis activity in human bortezomib-resistant ANBL6 cells assessed as early apoptosis at 1600 nM incubated for 72 hrs in the presence of BTZ by annexin V and 7-AAD staining by flow cytometry analysis; format: functional
[27] = molecular target: T1, Bromodomain and extra-terminal motif (BET) (Homo sapiens) (UniProt P25440+O60885+Q58F21+Q15059); settings: ANBL-6, dose lower 40.0 nM, dose upper […]
[28] = molecular target: T1, Bromodomain and extra-terminal motif (BET) (Homo sapiens); settings: Bortezomib-resistant ANBL6 cell, dose lower 40.0 nM, dose upper […]
[29] = molecular target: T1, Bromodomain and extra-terminal motif (BET) (Homo sapiens); settings: ANBL-6, dose lower 40.0 nM, dose upper […]; remark: listed apart in the source
[30] = molecular target: T1, Bromodomain and extra-terminal motif (BET) (Homo sapiens); settings: Bortezomib-resistant ANBL6 cell, dose lower 40.0 nM, dose upper […]; remark: listed apart in the source
[31] = molecular target: T1, Bromodomain and extra-terminal motif (BET) (Homo sapiens); settings: ANBL-6, dose lower 40.0 nM, dose upper […]; remark: listed apart in the source
[32] = molecular target: T1, Bromodomain and extra-terminal motif (BET) (Homo sapiens); settings: Bortezomib-resistant ANBL6 cell, dose lower 40.0 nM, dose upper […]; remark: listed apart in the source

`Cc1sc2c(c1C)C(c1ccc(Cl)cc1)=N[C@@H](CC(N)=O)c1nnc(C)n1-2` gave a CI (RPMI-8226 [1]) of 1.367, a CI [2] of 0.925 and a CI (ANBL-6 [3]) of 0.793. It also gave a CI [4] of 0.718, a CI (RPMI-8226 [5]) of 1.15 and a CI [6] of 0.693. It also gave a CI (RPMI-8226 [7]) of 1.041, a CI [8] of 0.569 and a CI (ANBL-6 [9]) of 0.614. For the same compound, the Activity (ANBL-6 [10]) was 6%, the Activity (ANBL-6 [11]) was 31% and the Activity (ANBL-6 [12]) was 10%. The Activity (ANBL-6 [13]) was 12%, the Activity [14] was 78% and the Activity [15] was 54%. For the same compound, the Activity [16] was 23%, the Activity [17] was 4% and the Activity [18] was 16%. The Activity [19] was 10%, the Activity [20] was 18% and the Activity [21] was 30%. For the same compound, the Activity [22] was 67%, the CI (ANBL-6 [23]) was 0.85 and the CI (ANBL-6 [24]) was 0.44. For the same compound, the CI [25] was 0.99, the CI [26] was 0.87 and the inhibition [27] was “Active”. The inhibition [28] was “Active”, the inhibition [29] was “Active” and the inhibition [30] was “Active”. The inhibition [31] was “inactive” and the inhibition [32] was “inactive”.
